According to the METLIN SMRT retention time set (Domingo-Almenara et al. 2019):

Experiment: gradient 5% acetonitrile 3 min, to 50% in 2 min, to 85% in 15 min, held 3 min, 100 µL/min
Details: column: Zorbax Extend-C18 2.1 x 50 mm; eluents: water / acetonitrile, 0.1% formic acid
In short: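 A Zorbax Extend-C18 column (2.1 × 50 mm, 1.8 μm) run at 100 μL/min with water and acetonitrile, both containing 0.1% formic acid, separated mixtures of ~100 pure standards. The HPLC was coupled to a quadrupole time-of-flight mass spectrometer operated in positive and negative ionization mode, with dead and dwell volumes of 40 μL and 900 μL. Each retention time was taken from a computationally picked adduct peak that was then manually inspected.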

Structure (SMILES) | RP-LC retention time
CCCN(CC1CCOC1)C(=O)Nc1c(C)cccc1C (centres undefined) | 791 s
Cc1cc(C)cc(NC(=O)NCCc2cn(CC(C)C)c3ncccc23)c1 | 905 s
Cc1cc(C)nc(N2CCN(c3ccc(Cl)cc3)CC2)n1 | 1050 s
Cc1nc(-c2ccc(-n3cc(C(=O)Nc4ccc(Br)cc4F)c(C)n3)cc2)no1 | 962 s
Cn1c(=O)oc2cc(-c3noc(-c4cccc5[nH]ccc45)n3)ccc21 | 932 s
Cc1cc(F)ccc1NS(=O)(=O)c1cn(CC(C)C)c2ncccc12 | 986 s
CCCC(=O)N1CCC2(C1)C(=O)Nc1ccc(OC)cc12 (centres undefined) | 652 s
CCOc1cccc(CNc2c(-c3nc(C)no3)cnc3nc(C)ccc23)c1 | 724 s
Cc1cccc(Nc2c(-c3ccc(Cl)cc3)nc3cnccn23)c1C | 1110 s
CCc1noc(NC(C)=O)c1-c1ccc(C)c(S(=O)(=O)Nc2cc(C)ccc2C)c1 | 900 s
COC(=O)c1ccc2c(=O)n(-c3ccc(Cl)cc3)c(N3CCSC3)nc2c1 | 1110 s
COCCN1C(=O)CCc2cc(NS(=O)(=O)c3ccc(C)c(Cl)c3)ccc21 | 851 s
CCOC(=O)CCNC(=O)N1[C@H]2CC[C@@H]1c1cnc(-c3ccc(F)cc3)nc1C2 | 797 s
Cc1ccc(CN2CCN(CC(=O)Nc3ccc(Cl)cc3)C(=O)C2=O)cc1 | 836 s
CS(=O)(=O)NCCS(=O)(=O)N1CCN(c2ccccc2F)CC1 | 723 s
Cc1cc(C)c2c(N3CCSCC3)nc(C(=O)NCC3CCCO3)nc2n1 (centres undefined) | 624 s
Cc1ccc(Nc2c(-c3ccc(Cl)cc3)nc3ncccn23)cc1C | 942 s
CCN1C(=O)c2cccnc2Sc2cc(CNC(=O)c3ccc(C#N)cc3F)ccc21 | 760 s
Cc1cc(C)cc(NC(=O)Cn2c(=O)n(-c3cccc(C)c3)c(=O)c3c2cc(C)n3C)c1 | 882 s
Cc1cc(N2CCN(C)CC2)nc2ccc(NC(=S)N3CCCCCC3)cc12 | 556 s
CCc1cccc(C)c1Nc1c(-c2cccc(O)c2)nc2nc(C)cc(C)n12 | 712 s
CCc1ccc2nc(Nc3nc(C)c4c(n3)CCCC4)nc(C)c2c1 | 754 s
COCCNC(=O)c1cn(C)c2ncccc12 | 582 s
CCOc1cccc(CN2CC[C@@](C)(O)[C@H](N3CCCC3)C2)c1 | 562 s

Structure (SMILES) | RP-LC retention time
CC(C)CN(CCCNC(=O)C1CCN(c2cnn(C)c(=O)c2)C1)CC(C)C (centres undefined) | 589 s
Cc1ccc(N2CC(c3noc(-c4cc(Cl)ccc4F)n3)CC2=O)cc1 (centres undefined) | 1090 s
Fc1ccc(C(OCCN2CCN(C/C=C/c3ccccc3)CC2)c2ccc(F)cc2)cc1 | 916 s
CC(=O)c1ccc(N2CCN(C(=O)CN3C(=O)C4C5C=CC(C5)C4C3=O)CC2)cc1 (centres undefined) | 644 s
COc1ccc(C2CC(=O)c3c(C)nc(N4CCN(CCO)CC4)nc3C2)cc1 (centres undefined) | 638 s
Cc1cc(NC(=O)Nc2ccc3c(c2)CCN3S(C)(=O)=O)ccc1Br | 943 s
CC(C)(C)c1csc(-c2csc(S(=O)(=O)Nc3ccc(Cl)cc3F)c2)n1 | 1300 s
O=C(CN1N=C(C(=O)Nc2ccc(F)cc2)CCC1=O)Nc1cc(F)ccc1F | 831 s
Cc1cc(=O)n(CC(=O)Nc2ccc(F)c(F)c2)c(N2CCCC2)n1 | 671 s
Cc1ccn2c(NC(=O)CC(C)(C)C)c(-c3ccc(F)cc3)nc2c1 | 669 s
CCCn1nc2n(c1=O)CCN(Cc1cn[nH]c1-c1ccc(C)c(C)c1)C2 | 644 s
CCc1noc(NC(C)=O)c1-c1ccc(OC)c(S(=O)(=O)N2CCOCC2)c1 | 676 s
CCn1cnc2ccc(C(=O)NC(C)C)cc2c1=O | 628 s
COc1ccc(-c2noc(Cn3nc(-c4ccc(Cl)cc4)ccc3=O)n2)cc1 | 1080 s
CC(=O)N1CCc2cc(N3CC(C(=O)Nc4cc(F)ccc4Cl)CC3=O)ccc21 (centres undefined) | 749 s
COCCCNC(=O)c1c(C)sc2ccn(Cc3ccc(F)cc3)c(=O)c12 | 746 s
CCCC(NC(=O)Cc1ccc(OC)c(Cl)c1)C(=O)Nc1nc2ccccc2[nH]1 (centres undefined) | 720 s
Cc1noc(C)c1-c1ccc(S(=O)(=O)N2CCN(c3cccc(Cl)c3)CC2)cc1 | 1160 s
Cn1c(=O)c(-c2c(Cl)cccc2Cl)cc2cnc(Nc3ccc(N4CCOCC4)cc3)nc21 | 1010 s
COCCCNC(=O)Cn1nc(C)c2nn(-c3ccc(Cl)cc3)c(-n3cccc3)c2c1=O | 887 s
CCc1ccc(OCc2nc(CCN(C)C(=O)c3ccco3)no2)cc1 | 910 s
O=C1c2ccccc2C(=O)c2c(NCCNCCO)ccc(O)c21 | 634 s
COc1cccc(CNC(=O)Cn2cnc3nc(N4CCC(C(=O)NC5CC5)CC4)sc3c2=O)c1 | 646 s

Continued, values first:

RP-LC retention time | Structure (SMILES)
674 s | O=C(NCCn1c(-c2ccccc2)nc2cccnc21)Nc1ccccc1
610 s | Cc1ccc2nc(C)cc(C(=O)NC3CCCC3)c2c1
577 s | Cc1c(C(=O)N2CCN=C2SCc2cccnc2)cccc1[N+](=O)[O-]
710 s | Cc1ccsc1C(=O)N1CC[C@@H](n2c(=O)n(C)c3cccnc32)C1
958 s | CC1CCN(S(=O)(=O)c2ccc3c(c2)CCCC(=O)N3CC(=O)Nc2ccccc2)CC1
702 s | O=C(NCc1ccccc1)C1CCc2sc(C(=O)N3CCCC3)cc2C1 (centres undefined)
1040 s | COc1ccc(C2Cn3nnc(C(=O)NC4CCCCCC4)c3CO2)cc1 (centres undefined)
596 s | Fc1cnccc1CN1CCC(N2CC3(CCCCC3)C2c2ccccc2)CC1 (centres undefined)
837 s | O=C(CCSc1ccccc1)N1CCCC(c2nnc(-c3cccs3)o2)C1 (centres undefined)
802 s | COc1ccc(S(=O)(=O)N2CCC(c3noc(-c4ccccn4)n3)C2)cc1 (centres undefined)
1060 s | CCCCN1N=C(C(=O)N2CCC(C)CC2)S(=O)(=O)c2ccc(C)cc21
792 s | O=C(Nc1ccc2c(c1)OCCO2)N1CCCC(c2nnnn2-c2ccccc2)C1 (centres undefined)
616 s | O=C(c1ccc(Br)cc1)N1CCN(C(=O)c2cc(-c3ccncc3)n[nH]2)CC1
714 s | CCc1nnc2ccc(S(=O)(=O)Nc3cccc(F)c3)cn12
707 s | Cc1nnc(-c2ccc3ccn(CC(=O)Nc4nccs4)c3c2)o1
857 s | COC(=O)C1=C(C)NC(=O)NC1c1cn(-c2ccccc2)nc1-c1ccc(F)cc1 (centres undefined)
770 s | CC1=C(c2ccccc2)S(=O)(=O)N=C1N1CCCN(C(=O)c2cccs2)CC1
973 s | COc1ccc(-c2nnc(Cc3nc(-c4ccccc4Cl)no3)o2)cc1
642 s | CCc1ccc(C2=C(C)C(N3CCCN(C(=O)Cn4ccnc4)CC3)=NS2(=O)=O)cc1
633 s | Cc1nnc(C2CCCN(C(=O)Cn3c(=O)oc4ccccc43)C2)s1 (centres undefined)
868 s | CCc1ccc(NC(=O)C2CCCN2S(=O)(=O)c2cc3c(cc2Cl)NC(=O)CO3)cc1 (centres undefined)

RP-LC retention time | Structure (SMILES)
831 s | COc1cccc(NC(=O)N2CC(c3nc(Cc4ccccc4)no3)C2)c1OC
948 s | COc1ccc(-c2csc3c(=O)n(Cc4ccccc4)cnc23)cc1OC
976 s | COc1ccccc1CNC(=O)c1nc2cccnc2n(CC(C)C)c1=O
856 s | CCOC(=O)c1ccc(NC(=O)N2CCCC2c2cc(CC)no2)cc1 (centres undefined)
880 s | COc1ccc(-c2noc(Cn3nc(-c4ccccc4)ccc3=O)n2)c(OC)c1
713 s | O=C(c1cc2occc2c(Nc2ccc(Cl)cc2)n1)N1CCN(c2ccccn2)CC1
1120 s | Cc1nc2nc(-c3ccc(C(C)(C)C)cc3)nn2c(C)c1CC(=O)N1CCc2ccccc2C1
759 s | Cc1oc(C2CCN(C(=O)Nc3ccc(Br)cc3)CC2)nc1C(=O)N(C)C
644 s | O=C(Cn1cccn1)N1CC(c2nc(-c3cccs3)no2)C1
1190 s | O=c1c2sccc2n(Cc2nc(-c3cccc(C(F)(F)F)c3)no2)c(=O)n1Cc1ccccc1
711 s | COCCNC(=O)C1c2ccccc2CC(=O)N1Cc1ccccc1 (centres undefined)
574 s | COc1ccccc1-n1nnc(C(=O)NCc2nc3ccccc3n2C)c1-c1ccccn1
941 s | O=C(c1nccnc1-c1nc2ccccc2s1)N1CCc2ccccc21
728 s | Cc1c(C(=O)N2CCC(C(=O)N3CC=C(c4ccccc4)CC3)CC2)sc2nc[nH]c(=O)c12
1030 s | Cn1cc(C(=O)NCCc2ccccc2)c(S(=O)(=O)N2CCSCC2)n1
752 s | O=C(Cn1ccc2sccc2c1=O)Nc1ccc(F)c(F)c1
840 s | Cc1ccc(-c2nnc(CC(=O)NC(C)CCc3ccccc3)o2)cc1 (centres undefined)
710 s | CCCNC(=O)Cc1nnc(-c2ccc(C)cc2)o1
651 s | O=C(c1cncc(Br)c1)N1CCN(c2ccc(-c3cccs3)nn2)CC1
700 s | CCn1cc(C(CNC(=O)Nc2ccc(OC)cc2)c2cccnc2)c2ccccc21 (centres undefined)
724 s | COc1ccc(-n2nc3c(N4CCCC(C(=O)NCc5cccs5)C4)nnc(C)c3c2C)cc1 (centres undefined)
